pIC50: −log10 of the molar value.
Each molecule was assayed on r(CUG)12-MBNL1 complex (assay: Inhibition of the r(CUG)12-MBNL1 complex measured by TR-FRET). Settings: Table L; 80 nM RNA, 60 nM MBNL1-His6.
Assay type: biochemical

| Compound | pIC50 |
| --- | --- |
| CC(C)(C)OC(=O)N1CCN(CCNC(=O)c2ccc3nc(-c4ccc(-c5nc6ccc(C(=O)NCCN7CCCCC7)cc6[nH]5)cc4)[nH]c3c2)CC1 [Compound 125] | 4.59 |
| c1cc2nc(-c3ccc(-c4nc5ccc(NC6=NCCN6C6=NCCN6)cc5[nH]4)cc3)[nH]c2cc1NC1=NCCN1 [Compound 76] | 4.84 |
| CCCNC(=O)c1ccc2nc(-c3ccc(-c4nc5ccc(C(=O)NCCC)cc5[nH]4)cc3)[nH]c2c1 [Compound 52, 2,2′-(1,4-phenylene)bis(N-propyl-1H-benzo[d]imidazole-6-carboxamide)] | < 3.70 |
| C[N+](C)(C)CCNC(=O)c1ccc2nc(-c3ccc(-c4nc5ccc(C(=O)NCC[N+](C)(C)C)cc5[nH]4)cc3)[nH]c2c1 [Compound 31, 2,2′-((2,2′-(1,4-phenylene)bis(1H-benzo[d]imidazole-6,6′-carbonyl))bis(azanediyl))bis(N,N,N-trimethylethanaminium) chloride] | 4.81 |
| COCCNC(=O)c1ccc2nc(-c3ccc(-c4nc5ccc(C(=O)NCCOC)cc5[nH]4)cc3)[nH]c2c1 [Compound 53, 2,2′-(1,4-phenylene)bis(N-(2-methoxyethyl)-1H-benzo[d]imidazole-6-carboxamide)] | < 3.70 |
| N=C(N)Nc1cccc(-c2nc3cc(-c4ccc5nc(-c6cccc(N)c6)[nH]c5c4)ccc3[nH]2)c1 [Compound 166] | 4.34 |
| c1cnc(Nc2ccc3nc(-c4ccc(-c5nc6ccc(Nc7ncccn7)cc6[nH]5)cc4)[nH]c3c2)nc1 [Compound 8, 2,2′-(1,4-phenylene)bis(N-(pyrimidin-2-yl)-1H-benzo[d]imidazol-5-amine)] | 3.82 |

The next lines start with the values.

| pIC50 | Compound |
| --- | --- |
| 4.47 | Nc1ccc2nc(-c3ccc(-c4nc5ccc(Nc6ncc[nH]6)cc5[nH]4)cc3)[nH]c2c1 [Compound 19, 2-(4-(5-amino-1H-benzo[d]imidazol-2-yl)phenyl)-N-(1H-imidazol-2-yl)-1H-benzo[d]imidazol-5-amine] |
| 5.11 | CN(C)CCCNC(=O)c1ccc2nc(-c3ccc(-c4nc5ccc(C(=O)NCCCN(C)C)cc5[nH]4)cc3)[nH]c2c1 [Compound 36, 2,2′-(1,4-phenylene)bis(N-(3-(dimethylamino)propyl)-1H-benzo[d]imidazole-6-carboxamide)] |
| 4.57 | N=C(N)Nc1ccc2nc(-c3ccc(-c4nc5ccc(NC(=N)N)cc5[nH]4)cc3)[nH]c2c1 [Compound 3, 1,1′-(2,2′-(1,4-phenylene)bis(1H-benzo[d]imidazole-6,2-diyl))diguanidine] |
| < 3.70 | CN(C)NC(=O)c1ccc2nc(-c3ccc(-c4nc5ccc(C(=O)NN(C)C)cc5[nH]4)cc3)[nH]c2c1 [Compound 67] |
| < 3.70 | COc1ccc(-c2nc3cc(-c4ccc5[nH]c(-c6ccc(OC)cc6)nc5c4)ccc3[nH]2)cc1 [Compound 106] |
| 5.17 | CN(C)CCNC(=O)c1ccc2nc(-c3ccc(-c4nc5ccc(C(=O)NCCN(C)CCCCc6cn(CCCN)nn6)cc5[nH]4)cc3)[nH]c2c1 [Compound 74] |

Same assay, conditions: Table M; 80 nM RNA, 60 nM MBNL1-His6

| Compound | pIC50 |
| --- | --- |
| CN(C)CCNC(=O)c1ccc(-c2nc3ccc(-c4ccc5nc(-c6ccc(C(=O)N(C)CCOCCOCCOCCOCc7cn(CCCNCC(=O)N8CCC[C@H]8C(=O)N8CCC[C@H]8C(=O)N8CCC[C@H]8C(=O)N8CCC[C@H]8C(=O)N(CCCn8cc(COCCOCCOCCOCCN(C)C(=O)c9ccc(-c%10nc%11ccc(-c%12ccc%13nc(-c%14ccc(C(=O)NCCN(C)C)cc%14)[nH]c%13c%12)cc%11[nH]%10)cc9)nn8)CC(N)=O)nn7)cc6)[nH]c5c4)cc3[nH]2)cc1 [Compound 433] | < 3.70 |
| CN(C)CCNC(=O)c1ccc(-c2nc3cc(-c4ccc5[nH]c(-c6ccc(C(=O)NCCCN=[N+]=[N-])cc6)nc5c4)ccc3[nH]2)cc1 [Compound 399] | 5.02 |
| CN(C)CCNC(=O)c1ccc(-c2nc3ccc(-c4ccc5nc(-c6ccc(C(=O)N(C)CCCc7cn(CCCNCC(=O)N8CCC[C@H]8C(=O)N8CCC[C@H]8C(=O)N8CCC[C@H]8C(=O)N8CCC[C@H]8C(=O)N(CCCn8cc(CCCN(C)C(=O)c9ccc(-c%10nc%11ccc(-c%12ccc%13nc(-c%14ccc(C(=O)NCCN(C)C)cc%14)[nH]c%13c%12)cc%11[nH]%10)cc9)nn8)CC(N)=O)nn7)cc6)[nH]c5c4)cc3[nH]2)cc1 [Compound 435] | 4.88 |
| CN(C)CCCOc1ccc(-c2nc3cc(-c4ccc(C(=O)NCCN(C)CCN)cc4)ccc3[nH]2)cc1 [Compound 395] | < 3.70 |
| c1cc(-c2nc3cc(-c4ccc5[nH]c(-c6ccc(OCCN7CCOCC7)cc6)nc5c4)ccc3[nH]2)ccc1OCCN1CCOCC1 [Compound 351] | ≤ 3.70 |
| CN(C)CCCOc1ccc2c(c1)nc(-c1ccc(-c3nc4ccc(OCCCN(C)C)cc4n3C)cc1)n2C [Compound 311] | < 3.70 |
| CN(C)CCNC(=O)c1ccc(-c2nc3cc(-c4ccc5[nH]c(-c6ccc(C(=O)NCCOCCOCCOCCOCCN=[N+]=[N-])cc6)nc5c4)ccc3[nH]2)cc1 [Compound 397] | 4.91 |
| C[C@H](CNC(=O)c1ccc(-c2nc3ccc(-c4ccc5nc(-c6ccc(C(=O)NCCN(C)C)cc6)[nH]c5c4)cc3[nH]2)cc1)NC(=O)c1ccc(-c2nc3ccc(-c4ccc5nc(-c6ccc(C(=O)NCCN(C)C)cc6)[nH]c5c4)cc3[nH]2)cc1 [Compound 441] | 4.18 |
| CN1C(C)(C)CC(Oc2ccc3nc(-c4ccc(-c5nc6ccc(OC7CC(C)(C)N(C)C(C)(C)C7)cc6[nH]5)cc4)[nH]c3c2)CC1(C)C [Compound 183, 1,4-bis(6-((1,2,2,6,6-pentamethylpiperidin-4-yl)oxy)-1H-benzo[d]imidazol-2-yl)benzene] | 3.94 |
| CC(=O)N(CCCCN(C)C(=O)c1ccc(-c2nc3cc(-c4ccc5[nH]c(-c6ccc(C(=O)NCCN(C)C)cc6)nc5c4)ccc3[nH]2)cc1)CC(=O)N(C)[C@@H](C)C(=O)N(C)[C@@H](C)C(=O)N(C)[C@@H](C)C(=O)N(CCCCN(C)C(=O)c1ccc(-c2nc3cc(-c4ccc5[nH]c(-c6ccc(C(=O)NCCN(C)C)cc6)nc5c4)ccc3[nH]2)cc1)CC(N)=O [Compound 418] | 5.27 |
| CN(C)CCNC(=O)c1ccc(-c2nc3ccc(-c4ccc5nc(-c6ccc(C(=O)NCc7cn(CCCNCC(=O)N8CCC[C@H]8C(=O)N8CCC[C@H]8C(=O)N8CCC[C@H]8C(=O)N8CCC[C@H]8C(=O)N(CCCn8cc(CNC(=O)c9ccc(-c%10nc%11ccc(-c%12ccc%13nc(-c%14ccc(C(=O)NCCN(C)C)cc%14)[nH]c%13c%12)cc%11[nH]%10)cc9)nn8)CC(N)=O)nn7)cc6)[nH]c5c4)cc3[nH]2)cc1 [Compound 434, (S)-N-(2-amino-2-oxoethyl)-N-(3-(4-((4-(2′-(4-((2-(dimethylamino)ethyl)carbamoyl)phenyl)-3H,3′H-[5,5′-bibenzo[d]imidazol]-2-yl)benzamido)methyl)-1H-1,2,3-triazol-1-yl)propyl)-1-((3-(4-((4-(2′-(4-((2-(dimethylamino)ethyl)carbamoyl)phenyl)-3H,3′H-[5,5′-bibenzo[d]imidazol]-2-yl)benzamido)methyl)-1H-1,2,3-triazol-1-yl)propyl)glycyl-L-prolyl-L-prolyl-L-prolyl)pyrrolidine-2-carboxamide] | 4.98 |
| C#CCCCNC(=O)CCCOc1ccc2[nH]c(-c3ccc(-c4nc5cc(OCCCN(C)C)ccc5[nH]4)cc3)nc2c1 [Compound 322] | 4.40 |
| CN1CCCCC1COc1ccc(-c2nc3cc(-c4ccc5[nH]c(-c6ccc(OCC7CCCCN7C)cc6)nc5c4)ccc3[nH]2)cc1 (stereo not shown) [Compound 359] | 4.18 |
| C#CCCCCNC(=O)CCCOc1ccc2[nH]c(-c3ccc(-c4nc5cc(OCCCN(C)C)ccc5[nH]4)cc3)nc2c1 [Compound 323] | 4.69 |
| CN(C)Cc1cccc(COc2ccc3nc(-c4ccc(-c5nc6ccc(OCc7cccc(CN(C)C)c7)cc6[nH]5)cc4)[nH]c3c2)c1 [Compound 213, 1,1′-((((1,4-phenylenebis(1H-benzo[d]imidazole-2,6-diyl))bis(oxy))bis(methylene))bis(3,1-phenylene))bis(N,N-dimethylmethanamine)] | 4.64 |
| CN(C)CCNC(=O)c1ccc(-c2nc3ccc(-c4ccc5nc(-c6ccc(C(=O)NC[C@H]7CCCN7C(=O)c7ccc(-c8nc9ccc(-c%10ccc%11nc(-c%12ccc(C(=O)NCCN(C)C)cc%12)[nH]c%11c%10)cc9[nH]8)cc7)cc6)[nH]c5c4)cc3[nH]2)cc1 [Compound 453] | 5.21 |

Continued, values first:

| pIC50 | Compound |
| --- | --- |
| 5.01 | Cc1cc(-c2nc3cc(-c4ccc5[nH]c(-c6ccc(OCCCN(C)C)c(C)c6)nc5c4)ccc3[nH]2)ccc1O [Compound 365] |
| 4.51 | CN(C)CCCCc1ccc(-c2nc3cc(-c4ccc5[nH]c(-c6ccc(CCCCN(C)C)cc6)nc5c4)ccc3[nH]2)cc1 [Compound 385] |
| 4.33 | CN(C)CCCOc1ccc2nc(-c3ccc(-c4nc5ccc(SCCCN(C)C)cc5[nH]4)cc3)[nH]c2c1 [Compound 228, 3-((2-(4-(6-(3-(dimethylamino)propoxy)-1H-benzo[d]imidazol-2-yl)phenyl)-1H-benzo[d]imidazol-6-yl)thio)-N,N-dimethylpropan-1-amine] |
| 3.95 | CN(C)CCn1cc(-c2ccc3nc(-c4ccc(-c5nc6ccc(-c7cn(CCN(C)C)nn7)cc6[nH]5)cc4)[nH]c3c2)nn1 [Compound 251, 2,2′-(4,4′-(2,2′-(1,4-phenylene)bis(1H-benzo[d]imidazole-6,2-diyl))bis(1H-1,2,3-triazole-4,1-diyl))bis(N,N-dimethylethanamine)] |
| 4.10 | CN(C)CC(C)(C)COc1ccc2nc(-c3ccc(-c4nc5ccc(OCC(C)(C)CN(C)C)cc5[nH]4)cc3)[nH]c2c1 [Compound 180] |
| 4.19 | CN(C)CCCOc1ccc2nc(-c3ccc(-c4nc5ccc(OCCCC#N)cc5[nH]4)cc3)[nH]c2c1 [Compound 241, 4-((2-(4-(6-(3-(dimethylamino)propoxy)-1H-benzo[d]imidazol-2-yl)phenyl)-1H-benzo[d]imidazol-6-yl)oxy)butanenitrile] |
| < 3.70 | CN(C)CCCOc1ccc2nc(-c3cccc(-c4nc5ccc(OCCCN(C)C)cc5[nH]4)c3)[nH]c2c1 [Compound 253, 3,3′-((1,3-phenylenebis(1H-benzo[d]imidazole-2,6-diyl))bis(oxy))bis(N,N-dimethylpropan-1-amine)] |
| 5.00 | CN(C)CCCOc1ccc2nc(-c3ccc(-c4nc5ccc(C(=O)NCCN(C)C)cc5[nH]4)cc3)[nH]c2c1 [Compound 238] |
